Assay results from patent US12545890B2, “Compositions and methods for derivation of trophoblast stem cells” (North Carolina State University, priority 2019, dated 2026).

Key:
H1 and H9 hESCs [1] = experiment: 6-day differentiation of hESCs to CTB-like cells in chemically defined medium, marker expression by qPCR and immunofluorescence; conditions: for immunofluorescence expression of trophoblast/CTB markers in CTB-like cells: day 6, S1P or replacing agonist with BMP4 and SB431542 in E7 medium
H1 and H9 hESCs [2] = experiment: differentiation of day-6 CTB-like cells to EVTs, analysed at day 12; conditions: for formation of EVTs, expression of EVT markers HLA-G and VE-Cadherin: agonist present during initial 6-day treatment, 12-day treatment; for formation of mesenchymal EVTs, compared among S1PR agonists: relative to the S1PR2 agonist
Source text: (§1) Differentiation of hPSCs (6 days protocol). […] The medium was replaced every day.

H1 and H9 hESCs [3] = experiment: differentiation of day-6 CTB-like cells to STB, analysed at day 14; conditions: for formation of multinucleate STB expressing STB markers: agonist present during initial 6-day treatment, 14-day treatment; for formation of large multinucleated STB, compared among S1PR agonists: compared to the S1PR1 agonist
Source text: as §1

H9 and H1 hESCs = experiment: 3-day differentiation of hESCs, quantitative image analysis of nuclear CDX2; assay type: cell-based, human; conditions: day 3; BMP4 and SB431542 in E7 medium with S1PR3 agonist
Protocol: Differentiation of hPSCs to hPSC-TS^CDX2 and hPSC-TS cells. […] The medium was replaced every day. […] Alternatively, hPSCs after 2 or 3 days of differentiation were directly passaged into TSCM.
Immunofluorescence analysis.
Confocal image analysis. Image analysis was conducted using an image processing algorithm created in MATLAB. First, the DAPI stain was isolated, binarized, and processed to accurately represent the number of cells in each image. The primary-antibody stain of interest was isolated and processed in the same manner. Only primary-antibody pixels that overlap DAPI pixels were considered for analysis, and the average intensities of those pixels were measured and correlated to the nearest nuclei. This was performed for one control image and multiple experimental images. Each cell in the experimental images was considered positively stained if the average intensity of that cell was greater than the average intensity of all of the cells in the control image. Statistical analysis was done using a two-tailed t-test evaluating percent positive cells from different treatment periods.

[4] = day 6, qualitative immunofluorescence

## CCOc1ccc(-c2nc(-c3cccc4c3CCC4NCCO)no2)cc1OCC.Cl (stereo not drawn) [CYM5442 hydrochloride]
H1 and H9 hESCs [1]; [4]
  intensity of CDX2 and P63 expression, compared among S1PR agonists: higher
  nuclear P63 expression, compared among S1PR agonists: strongest
H1 and H9 hESCs [1]
  immunofluorescence expression of trophoblast/CTB markers in CTB-like cells: Expression of CDX2, GATA3, P63, and TEAD4 was observed
H1 and H9 hESCs [2]
  formation of EVTs, expression of EVT markers HLA-G and VE-Cadherin: expression of the EVT markers HLA-G and VE-Cadherin
  formation of mesenchymal EVTs, compared among S1PR agonists: enhanced formation of mesenchymal EVTs
H1 and H9 hESCs [3]
  formation of multinucleate STB expressing STB markers: formation of multinucleate STB expressing KRT7 and hCG

## Cc1cc(C(=O)Cn2cc(C#N)ccc2=O)c(C)n1Cc1ccccc1 [CYM5520]
H1 and H9 hESCs [1]; [4]
  intensity of CDX2 and P63 expression, compared among S1PR agonists: lower expression of CDX2, strong cytoplasmic expression of P63, and high heterogeneity in staining
H1 and H9 hESCs [1]
  immunofluorescence expression of trophoblast/CTB markers in CTB-like cells: Expression of CDX2, GATA3, P63, and TEAD4 was observed
H1 and H9 hESCs [2]
  formation of EVTs, expression of EVT markers HLA-G and VE-Cadherin: expression of the EVT markers HLA-G and VE-Cadherin
H1 and H9 hESCs [3]
  formation of multinucleate STB expressing STB markers: formation of multinucleate STB expressing KRT7 and hCG
  formation of large multinucleated STB, compared among S1PR agonists: more pronounced

## O=C(c1cc(C2CC2)on1)N(C1CCCCC1)C1CCCCC1 [CYM5541]
H1 and H9 hESCs [1]; [4]
  intensity of CDX2 and P63 expression, compared among S1PR agonists: higher
H1 and H9 hESCs [1]; day 6, qualitative immunofluorescence, listed as S1PR3 agonist
  intensity of CDX2 and P63 expression, compared among S1PR agonists: high CDX2 expression
H1 and H9 hESCs [1]
  immunofluorescence expression of trophoblast/CTB markers in CTB-like cells: Expression of CDX2, GATA3, P63, and TEAD4 was observed
H1 and H9 hESCs [2]
  formation of EVTs, expression of EVT markers HLA-G and VE-Cadherin: expression of the EVT markers HLA-G and VE-Cadherin
  formation of mesenchymal EVTs, compared among S1PR agonists: enhanced formation of mesenchymal EVTs
H1 and H9 hESCs [3]
  formation of multinucleate STB expressing STB markers: formation of multinucleate STB expressing KRT7 and hCG
  formation of large multinucleated STB, compared among S1PR agonists: more pronounced
H9 and H1 hESCs
  fraction of CDX2+ cells: nearly all cells are CDX2^+

## CCCCCCCCCCCCC/C=C/[C@@H](O)[C@@H](N)COP(=O)(O)O [S1P, sphingosine-1 phosphate]
H1 and H9 hESCs [1]; H1 and H9 hESCs, 6 days in E7 medium supplemented with S1P, with BMP4 and SB431542, compared to hESCs
  gene expression of CTB markers CDX2 and ELF5: upregulation of the CTB markers CDX2 and ELF5 was observed
H1 and H9 hESCs [1]; H1 and H9 hESCs, after 6 days in E7 medium supplemented with S1P, with BMP4 and SB431542
  gene expression of neural and mesodermal markers: no significant changes in markers associated with neural or mesodermal differentiation
H1 and H9 hESCs [1]; H9 and H1 hESCs, compared to 6-day treatment in the presence of S1P
  gene expression after 6 days of differentiation upon removal of S1P: downregulation of the CTB marker CDX2 and upregulation of transcripts of neural and mesoderm markers
H1 and H9 hESCs [1]
  immunofluorescence expression of trophoblast/CTB markers in CTB-like cells: confirmed expression of the pan-trophoblast marker KRT7, and CTB markers P63 and GATA3
H1 and H9 hESCs [2]; S1P removed during hESC differentiation to CTB-like cells, identical differentiation conditions
  formation of EVTs upon removal of S1P: abolished formation of EVTs
H1 and H9 hESCs [2]
  formation of EVTs, expression of EVT markers HLA-G and VE-Cadherin: expression of KRT7 and the EVT markers VE-Cadherin and HLA-G
H1 and H9 hESCs [3]; S1P removed during initial 6-day treatment, syncytin and KRT7 staining
  differentiation to STB in the absence of S1P: did not occur
H1 and H9 hESCs [3]
  formation of multinucleate STB expressing STB markers: formation of KRT7^+ multinucleate cells expressing the STB markers hCG and syncytin

## CCCCCCCCCCCCCCC[C@@H](O)[C@@H](N)COP(=O)(O)O [dhS1P, D-erythro-dihydrospingosine-1-phosphate]
H1 and H9 hESCs [1]
  immunofluorescence expression of trophoblast/CTB markers in CTB-like cells: CTB-like cells showed expression of CDX2, GATA3, P63, and TEAD4
H1 and H9 hESCs [2]
  formation of EVTs, expression of EVT markers HLA-G and VE-Cadherin: EVT expressing HLA-G and VE-Cadherin were obtained
H1 and H9 hESCs [3]
  formation of multinucleate STB expressing STB markers: STB expressing KRT7 and hCG
